Here are results for two molecules from publication PMC5840343, “Interplay between conformational selection and zymogen activation” (Scientific Reports, 2018).

Values joined by “and” are separate entries in the source; they are usually repeats but may differ in a detail not shown here. Identical values can stand only once. “Also recorded” adds a separate entry of the source.

Broadly, the kon is the second-order rate constant of association. As a reminder, the koff is the rate constant with which the complex falls apart. The low end stands for a long-lived complex, the high end for a short-lived complex.

Test [1] has as its target T1, prethrombin-1 (Homo sapiens, UniProt P00734, S568A).
T1 construct: generates the intermediate prethrombin-1 (Pre1) composed of kringle-2 and the protease domain; made in house
Briefly: Equilibrium intrinsic fluorescence titration of FPR binding. To be noted: pH 8.0, 15 °C, read-out: Kd,app (direct fluorescence titration). The text has this: (§1) defined in terms of the intrinsic equilibrium dissociation constant, Kd, and the E*:E ratio k21/k12. Direct and independent determination of Kd,app can be obtained by fluorescence titrations under the same experimental conditions used for stopped-flow measurements. The definition of Kd,app in eq. 3 leads to three useful expressions, i.e.,4 kon≥α22(0)/α2(∞)Kd,app when α2 decreases hyperbolically with [L] as in the case of prothrombin (Fig. 3A),5 kon=α2(0)[α2(∞)+k21]/α2(∞)Kd,app=α2(0)/Kd,app+α2(0)/α2(∞)Kd,appk21 when α2 increases hyperbolically with [L] as in the case of prethrombin-2 (Fig. 3A), and6 kon=α2(0)+k21/Kd,app=α2(0)/Kd,app+1/Kd,appk21 when α2 is independent of [L] as in the case of prethrombin-1 (Fig. 3A). The expression in eq. 4 yields a direct estimate of the lower limit of kon from which the value of k21 and the E*:E ratio can be arrived at with the help of eq. 3 (Table 1). The expressions in eqs 5 and 6, on the other hand, require assumptions to be made on the value of kon to arrive at the value of k21. In both cases, a lower limit for kon is estimated as kon≥α2(0)/Kd,app .

The target of test [2] is T2, prethrombin-2 (Homo sapiens, UniProt P00734, S568A).
T2 construct: the protease domain (T272-E579); made in house
The test is described as above. To be noted: pH 8.0, 15 °C, read-out: Kd,app (direct fluorescence titration).
Description: as §1

Test [3] deals with T3, meizothrombin (Homo sapiens, UniProt P00734, S568A).
T3 construct: Cleavage at R320 retains the modular structure of prothrombin and generates the active intermediate meizothrombin; Cleavage at R320 generates the active intermediate meizothrombin that retains the modular organization of prothrombin; made in house
The description is as above.
Description: as §1

Test [4] has as its target T4, thrombin (Homo sapiens, UniProt P00734, S568A).
T4 construct: the protease domain composed of the A and B chains; made in house
Described as above. To be noted: for Kd: thrombin.
Description: as §1

For test [5], the target named is T5, prothrombin (Homo sapiens, UniProt P00734, S568A).
T5 construct: Gla-domain (A1-A46), kringle-1 (C65-C143), kringle-2 (C170-C248) and the protease domain (T272-E579); made in house
Described as above. To be noted: 400 mM ChCl, 50 mM Tris, 0.1% PEG8000, pH 8.0, 15 °C, read-out: Kd,app (direct fluorescence titration).
Description: as §1

The target in test [6] is T1, prethrombin-1. Kind of test: Stopped-flow rapid kinetics of FPR binding to the active site. How it is done: (§2) Rapid kinetic experiments were conducted on an Applied Photophysics SX20 stopped-flow spectrometer under conditions of excess ligand. The dead time of the mixing cell for this instrument is 0.5–1 ms. Final concentrations of 50–75 nM of thrombin and meizothrombin, or 200–400 nM of prothrombin, prethrombin-1 and prethrombin-2 were used in a buffer containing 400 mM ChCl, 50 mM Tris, 0.1% PEG8000, pH 8.0, at 15 °C. The solution containing the protein was mixed 1:1 with 60 µL solutions of FPR in the same buffer. FPR is the […] analog of the irreversible active site inhibitor H-D-Phe-Pro-Arg-CH2Cl, for which detailed structural information exists on its interaction with the active site of thrombin[47],[61]. Rapid kinetics of FPR binding were studied using an excitation of 295 nm and a cutoff filter at 320 nm. Baselines were measured by mixing the protein into buffer in the absence of ligand. Each kinetic trace for a given ligand concentration was taken as the average of a minimum of six determinations. Traces were fit to single or double exponentials based on the analysis of residuals using software supplied by Applied Photophysics.
(§3) A detailed discussion of ligand binding mechanisms established by rapid kinetics is given elsewhere[25]–[27]. and is briefly summarized below for the sake of completeness. The relevant kinetic scheme for ligand binding to the active site of a trypsin-like protease or zymogen is1 E^∗k12←⟶k21Ekon[L]←⟶koffE:L E* and E depict the partitioning of the ensemble of pre-existing conformations between those with the active site accessible (E) or inaccessible (E*) to ligand binding. The ligand, L, selectively binds to E with a second order rate of association kon. Under conditions where L is in large excess over the macromolecule, the reaction scheme in eq. 1 gives two independent rates of relaxation to equilibrium according to the expression2 2α1,2=k12+k21+kon[L]+koff±(kon[L]+koff−k12−k21)^2+4k21kon[L]
(§4) The fast relaxation, α1, always increases and eventually grows linearly with [L]. Depending on the sign of the expression koff−k12 , the value of the slow relaxation α2 hyperbolically decreases ( koff>k12 ) or increases ( koff<k12 ) with [L], and remains constant when koff=k12 [25]–[27]. The fast relaxation that eventually grows linearly with [L] reflects the binding event. The slow relaxation monitors the conformational transition associated with binding.
(§5) Resolution of all four independent rate constants in the reaction scheme in eq. 1 requires measurements of both relaxations. […] 2 can be resolved unequivocally. When α2 decreases hyperbolically with [L], the lower limit in the plot, α2(0) , measures the value of koff or the sum k12+k21 , whichever is smaller. The upper limit α2(∞) measures the rate for the E* → E transition k12. […] If only α2 is accessible to experimental measurements, estimation of the E*:E ratio requires additional information from the apparent equilibrium dissociation constant3 Kd,app=koff/kon(1+k21/k12)=Kd(1+k21/k12)
as §1, with “The expressions in eqs 5 and 6, on the other hand, require assumptions to be made on the value of kon to arrive at the value of k21. In both cases, a lower limit for kon is estimated as kon≥α2(0)/Kd,app .” left out

Test [7] has as its target T2, prethrombin-2. The test is described as above. The method, then: as §2, §3, §4, §5
as §1, with “The expressions in eqs 5 and 6, on the other hand, require assumptions to be made on the value of kon to arrive at the value of k21. In both cases, a lower limit for kon is estimated as kon≥α2(0)/Kd,app .” left out

The target in test [8] is T5, prothrombin. The description is as above. How it is done: as §2, §3, §4, §5
as §1, with “The expressions in eqs 5 and 6, on the other hand, require assumptions to be made on the value of kon to arrive at the value of k21. In both cases, a lower limit for kon is estimated as kon≥α2(0)/Kd,app .” left out

Test [9] addresses T3, meizothrombin. The test is described as above. The method, then:
as §2, §3, §4, §5

Test [10] concerns the target T4, thrombin. The description is as above. How it is done: as §2, §3, §4, §5
Test [11] deals with prothrombin (Homo sapiens, UniProt P00734). Kind of test: Limited proteolysis by subtilisin in the absence or presence of argatroban. Format: biochemical. To be noted: argatroban 500 μM. The source says:
(§6) Aliquots of proteolysis mixtures were quenched whit NuPAGE LDS buffer and analyzed by non-reducing SDS-PAGE (4–12% acrylamide). None of the gels were cropped and originals are available in the Supplementary Information. The relative intensity of intact protein gel bands, after Coomassie staining, was estimated by densitometric analysis and fit to single exponential decay over time.

In test [12] the target is prethrombin-2 (Homo sapiens, UniProt P00734). Described as above. To be noted: argatroban 500 μM; pH 7.4, 37 °C. Format: biochemical.
Description: as §6

In test [13] the target is thrombin (Homo sapiens, UniProt P00734). The description is as above. Format: biochemical. To be noted: argatroban 500 μM; pH 7.4, 37 °C.
Description: as §6

The next test concerns the target prothrombin mutant R320W (Homo sapiens, UniProt P00734, R363W). Kind of test: Limited proteolysis by chymotrypsin in the absence or presence of argatroban. It counts as biochemical.
Description: as §6

A further test deals with prothrombin mutant R271W (Homo sapiens, UniProt P00734, R314W). The description is as above. Format: biochemical.
Description: as §6

Where [14] appears, read: pH 8.0, 15 °C, read-out: Kd,app (direct fluorescence titration).
Setting [15] is: active site Ser replaced by Ala, E*→E rate, pH 8.0, 15 °C.
Where [16] appears, read: from rate constants, read-out: Kd,app (calculated from eq. 3).

Turning to `N=C(N)NCCC[C@H](NC(=O)[C@@H]1CCCN1C(=O)[C@H](N)Cc1ccccc1)C(=O)Nc1ccc([N+](=O)[O-])cc1` [FPR, H-D-Phe-Pro-Arg-p-nitroanilide], the Kd at prethrombin-1 [1] was 92000 ± 8000 nM; at prethrombin-2 [2] it was 29000 ± 2000 nM; on meizothrombin [3] (setting [14]), 510 ± 40 nM; on meizothrombin [3] (read-out: Kd,app from equilibrium measurements), 510 ± 40 nM; on thrombin [4] (setting [14]), 280 ± 20 nM; on thrombin [4] (read-out: Kd,app from equilibrium measurements of intrinsic fluorescence titration) it was 280 ± 20 nM. Further, the Kd on prothrombin [5] is 190000 ± 20000 nM; at prethrombin-1 [6] (prethrombin-1, under the assumption that kon = 1.5 μM^−1 s^−1, read-out: Kd,app (calculated from eq. 3)), at least 92000 nM; at prethrombin-2 [7] (prethrombin-2, under the assumption that kon = 1.5 μM^−1 s^−1, read-out: Kd,app (calculated from eq. 3)), at least 29000 nM; at prothrombin [8] (from rate constants, pH 8.0, 15 °C, read-out: Kd,app (calculated from eq. 3)), at least 200000 nM; at meizothrombin [9] (setting [16]) it was 440 ± 30 nM; on thrombin [10] (setting [16]) it was 290 ± 20 nM. For the same molecule, on thrombin [4] (ratio of Kd,app, thrombin vs prothrombin), the “higher affinity of thrombin compared to prothrombin” value is 700 fold. The k12 at prethrombin-1 [6] (prethrombin-1, catalytic Ser replaced by Ala, E*→E rate, pH 8.0, 15 °C) was 42 ± 2 s⁻¹; on prethrombin-2 [7] (prethrombin-2, catalytic Ser replaced by Ala, E*→E rate, pH 8.0, 15 °C) it was 170 ± 10 s⁻¹; on prothrombin [8] (catalytic Ser replaced by Ala, E*→E rate, 400 mM ChCl, 50 mM Tris, 0.1% PEG8000, pH 8.0, 15 °C), 6.9 ± 0.3 s⁻¹; on meizothrombin [9] (setting [15]), 8.8 ± 0.5 s⁻¹; on thrombin [10] (setting [15]), 16 ± 1 s⁻¹. Also, the kon on prethrombin-1 [6] (prethrombin-1, lower estimate from eq. 6, pH 8.0, 15 °C) was at least 460000 ± 50000 M⁻¹ s⁻¹; on prethrombin-2 [7] (prethrombin-2, lower estimate from eq. 5, pH 8.0, 15 °C) it was at least 930000 ± 80000 M⁻¹ s⁻¹; at prothrombin [8] (lower estimate from eq. 4, pH 8.0, 15 °C), at least 1.5e+06 ± 100000 M⁻¹ s⁻¹; at meizothrombin [9] (pH 8.0, 15 °C), 2.5e+06 ± 300000 M⁻¹ s⁻¹; at thrombin [10] (pH 8.0, 15 °C), 2.6e+06 ± 300000 M⁻¹ s⁻¹. In addition, the koff at prethrombin-1 [6] (prethrombin-1, pH 8.0, 15 °C) was 42 ± 2 s⁻¹; at prethrombin-2 [7] (prethrombin-2, pH 8.0, 15 °C), 27 ± 2 s⁻¹; at prothrombin [8] (koff ≥ α2(0), pH 8.0, 15 °C) it was at least 45 ± 5 s⁻¹; at meizothrombin [9] (pH 8.0, 15 °C), 0.8 ± 0.1 s⁻¹; on thrombin [10] (pH 8.0, 15 °C), 0.6 ± 0.1 s⁻¹. Besides, the k21 at prothrombin [8] (E→E* rate, same buffer, pH 8.0, 15 °C) was at least 38 ± 3 s⁻¹; at meizothrombin [9] (E→E* rate, pH 8.0, 15 °C), 3.4 ± 0.7 s⁻¹; on thrombin [10] (E→E* rate, pH 8.0, 15 °C) it was 3.8 ± 0.8 s⁻¹. Further, on prothrombin [8] (the smaller between koff or the sum k12 + k21), the “α2(0), limiting value of the slow relaxation” value was 45 ± 5 s⁻¹.

`CC1CNc2c(cccc2S(=O)(=O)N[C@@H](CCCNC(=N)N)C(=O)N2CC[C@@H](C)C[C@@H]2C(=O)O)C1` (some centres unmarked) [argatroban]: the “effect on products of subtilisin proteolysis of prothrombin” value at prothrombin [11] (non-reducing SDS-PAGE) is “prevents accumulation of prethrombin-1”. For the same molecule, the “effect on the rate of proteolytic digestion of prothrombin by subtilisin” value at prothrombin [11] (pH 7.4, 37 °C) is listed as “significantly enhanced”. Also, at prothrombin [11] (subtilisin 1:1000 (w/w), pH 7.4, 37 °C, densitometry), the “enhancement of the rate of prothrombin digestion by subtilisin” value is on record as over 10 fold. The “effect on subtilisin digestion of prethrombin-2” value at prethrombin-2 [12] was “much less pronounced than that of prothrombin”. Also, the “effect on subtilisin digestion of thrombin” value at thrombin [13] is listed as “practically absent; also recorded: no effect”. The “kexp of chymotrypsin hydrolysis in the presence of argatroban” value on prothrombin mutant R320W (R320W 0.1 mg/ml, argatroban 500 μM, chymotrypsin 1:50 (w/w), pH 7.4, 37 °C) was 0.035 ± 0.007 min⁻¹; on prothrombin mutant R271W (R271W 0.1 mg/ml, argatroban 500 μM, chymotrypsin 1:50 (w/w), pH 7.4, 37 °C), 0.027 ± 0.004 min⁻¹. The “enhancement of the rate of chymotrypsin hydrolysis” value was 3 fold and > 3 fold on prothrombin mutant R320W (R320W, presence vs absence of argatroban); 3 fold and > 3 fold on prothrombin mutant R271W (R271W, presence vs absence of argatroban).
